pIC50: −log10 of the molar value. Bridge positions count the residues as written; N and C are the ends. Square brackets hold non-standard residues; d marks the D form. Peptide text beside a SMILES is read from it. * marks the point of attachment. Phe(4-COOH) = N[C@@H](Cc1ccc(C(=O)O)cc1)C(=O)O; Bip = N[C@@H](Cc1ccc(-c2ccccc2)cc1)C(=O)O; Phe(4-CN) = N#Cc1ccc(C[C@H](N)C(=O)O)cc1; Phe(3-Me) = Cc1cccc(C[C@H](N)C(=O)O)c1; NH(CH2)12COOH = O=C(O)CCCCCCCCCCCCN*; Val(3-OH) = CC(C)(O)[C@H](N)C(=O)O; Cha = N[C@@H](CC1CCCCC1)C(=O)O; Carboxymethyl = O=C(O)C*; Orn = NCCC[C@H](N)C(=O)O; Aun = NCCCCCCCCCCC(=O)O; Dab = NCC[C@H](N)C(=O)O; Nva = CCC[C@H](N)C(=O)O; AEEA = NCCOCCOCC(=O)O

This experiment deals with T1, PD-1/PD-L1 interaction (PE-labeled human PD-L1-Ig binding to Jurkat cell line over-expressing human PD-1) (Homo sapiens, UniProt Q15116).
T1 construct: expressed in transfected cells; host or cells: Jurkat
T1 sequence (Q15116 25-288): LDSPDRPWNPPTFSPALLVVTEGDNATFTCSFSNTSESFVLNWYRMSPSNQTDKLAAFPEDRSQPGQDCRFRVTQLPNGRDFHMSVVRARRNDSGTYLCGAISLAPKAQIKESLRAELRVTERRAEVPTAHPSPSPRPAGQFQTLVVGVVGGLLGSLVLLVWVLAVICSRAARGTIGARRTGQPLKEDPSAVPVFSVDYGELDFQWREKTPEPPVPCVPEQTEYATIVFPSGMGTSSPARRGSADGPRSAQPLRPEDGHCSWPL
The experiment in a line: Jurkat-PD-1 Cell Binding High-Content Screening Assay (CBA). The experiment is classed as cell-based. To be noted: Jurkat cell line over-expressing human PD-1; PE-labeled PD-L1-Ig 20 nM final; read-out: Jurkat hPD1-PDL1 IC50. In a few lines: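 Read-out is high-content imaging of cell-bound phycoerythrin-tagged PD-L1-Ig on fixed, Hoechst-counterstained Jurkat cells that over-express human PD-1. Compound exposure lasts 2 h at 37° C before the labeled ligand (20 nM final) is added for a further hour.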
Broadly, the pIC50 is the IC50 on a negative log10 scale, so that one unit is a factor of ten. As to `COC[C@@H]1NC(=O)CSC[C@@H](C(=O)N[C@@H](CCN)C(=O)NCCOCCOCC(=O)NCCCCCCCCCCC(=O)O)NC(=O)[C@H](CO)NC(=O)[C@H](C(C)(C)O)NC(=O)[C@H](CC2CCCCC2)NC(=O)[C@H](CCN)NC(=O)[C@@H](CC(C)C)NC(=O)[C@H](CCCN)NC(=O)[C@H](Cc2ccc(OCC(=O)O)cc2)NC(=O)[C@H](Cc2ccc(-c3ccccc3)cc2)NC(=O)[C@H](Cc2ccc(OCC(=O)O)cc2)NC(=O)[C@H](Cc2cccc(C)c2)NC(=O)[C@H](CC(=O)O)NC(=O)[C@H](Cc2ccc(OCC(=O)O)cc2)NC1=O` [Compound 2239] ({CH2CO}-S(Me)Y(Carboxymethyl)D[Phe(3-Me)]Y(Carboxymethyl)[Bip]Y(Carboxymethyl)[Orn][dL][Dab][Cha][Val(3-OH)]SC[Dab][AEEA][Aun]-OH; thioether N-14), the pIC50 is 8.80.

Regarding `Cc1cccc(C[C@@H]2NC(=O)[C@H](CC(=O)O)NC(=O)[C@H](Cc3ccc(OCC(=O)O)cc3)NC(=O)[C@H](Cc3ccc(C#N)cc3)NC(=O)CSC[C@@H](C(=O)N[C@@H](CCN)C(=O)NCCOCCOCC(=O)NCCCCCCCCCCC(=O)O)NC(=O)[C@H](CO)NC(=O)[C@H](C(C)(C)O)NC(=O)[C@H](CC3CCCCC3)NC(=O)[C@H](CCN)NC(=O)[C@@H](CC(C)C)NC(=O)[C@H](CCCN)NC(=O)[C@H](Cc3ccc(OCC(=O)O)cc3)NC(=O)[C@H](Cc3ccc(-c4ccccc4)cc3)NC(=O)[C@H](Cc3ccc(OCC(=O)O)cc3)NC2=O)c1` [Compound 2240] ({CH2CO}-[Phe(4-CN)]Y(Carboxymethyl)D[Phe(3-Me)]Y(Carboxymethyl)[Bip]Y(Carboxymethyl)[Orn][dL][Dab][Cha][Val(3-OH)]SC[Dab][AEEA][Aun]-OH; thioether N-14), the pIC50 is 8.14.

For `COC[C@@H]1NC(=O)CSC[C@@H](C(=O)N[C@@H](CCN)C(=O)NCCOCCOCC(=O)NCCCCCCCCCCC(=O)O)NC(=O)[C@H](CO)NC(=O)[C@H](C(C)(C)O)NC(=O)[C@H](CC2CCCCC2)NC(=O)[C@H](CCN)NC(=O)[C@@H](CC(C)C)NC(=O)[C@H](CCCN)NC(=O)[C@H](Cc2ccc(OCC(=O)O)cc2)NC(=O)[C@H](Cc2ccc(-c3ccccc3)cc2)NC(=O)[C@H](Cc2ccc(OCC(=O)O)cc2)NC(=O)[C@H](Cc2cccc(C)c2)NC(=O)[C@H](CC(=O)O)NC(=O)[C@H](Cc2ccc(C(=O)O)cc2)NC1=O` [Compound 2241] ({CH2CO}-S(Me)[Phe(4-COOH)]D[Phe(3-Me)]Y(Carboxymethyl)[Bip]Y(Carboxymethyl)[Orn][dL][Dab][Cha][Val(3-OH)]SC[Dab][AEEA][Aun]-OH; thioether N-14), the pIC50 is 8.43.

With `Cc1cccc(C[C@@H]2NC(=O)[C@H](CC(=O)O)NC(=O)[C@H](Cc3ccc(C(=O)O)cc3)NC(=O)[C@H](Cc3ccc(C#N)cc3)NC(=O)CSC[C@@H](C(=O)N[C@@H](CCN)C(=O)NCCOCCOCC(=O)NCCCCCCCCCCC(=O)O)NC(=O)[C@H](CO)NC(=O)[C@H](C(C)(C)O)NC(=O)[C@H](CC3CCCCC3)NC(=O)[C@H](CCN)NC(=O)[C@@H](CC(C)C)NC(=O)[C@H](CCCN)NC(=O)[C@H](Cc3ccc(OCC(=O)O)cc3)NC(=O)[C@H](Cc3ccc(-c4ccccc4)cc3)NC(=O)[C@H](Cc3ccc(OCC(=O)O)cc3)NC2=O)c1` [Compound 2242] ({CH2CO}-[Phe(4-CN)][Phe(4-COOH)]D[Phe(3-Me)]Y(Carboxymethyl)[Bip]Y(Carboxymethyl)[Orn][dL][Dab][Cha][Val(3-OH)]SC[Dab][AEEA][Aun]-OH; thioether N-14), the negative-log IC50 (pIC50) was 8.40.

Consider `Cc1cccc(C[C@@H]2NC(=O)[C@H](CC(=O)O)NC(=O)[C@H](Cc3ccc(OCC(=O)O)cc3)NC(=O)[C@H]([C@@H](C)O)NC(=O)CSC[C@@H](C(=O)N[C@@H](CCN)C(=O)NCCOCCOCC(=O)NCCCCCCCCCCC(=O)O)NC(=O)[C@H](CO)NC(=O)[C@H](C(C)(C)O)NC(=O)[C@H](CC3CCCCC3)NC(=O)[C@H](CCN)NC(=O)[C@@H](CC(C)C)NC(=O)[C@H](CCCN)NC(=O)[C@H](Cc3ccc(OCC(=O)O)cc3)NC(=O)[C@H](Cc3ccc(-c4ccccc4)cc3)NC(=O)[C@H](Cc3ccc(OCC(=O)O)cc3)NC2=O)c1` [Compound 2243] ({CH2CO}-TY(Carboxymethyl)D[Phe(3-Me)]Y(Carboxymethyl)[Bip]Y(Carboxymethyl)[Orn][dL][Dab][Cha][Val(3-OH)]SC[Dab][AEEA][Aun]-OH; thioether N-14), for which the pIC50 was 8.77.

Take `Cc1cccc(C[C@@H]2NC(=O)[C@H](CC(=O)O)NC(=O)[C@H](Cc3ccc(OCC(=O)O)cc3)NC(=O)[C@H](CCCNC(=N)N)NC(=O)CSC[C@@H](C(=O)N[C@@H](CCN)C(=O)NCCOCCOCC(=O)NCCCCCCCCCCC(=O)O)NC(=O)[C@H](CO)NC(=O)[C@H](C(C)(C)O)NC(=O)[C@H](CC3CCCCC3)NC(=O)[C@H](CCN)NC(=O)[C@@H](CC(C)C)NC(=O)[C@H](CCCN)NC(=O)[C@H](Cc3ccc(OCC(=O)O)cc3)NC(=O)[C@H](Cc3ccc(-c4ccccc4)cc3)NC(=O)[C@H](Cc3ccc(OCC(=O)O)cc3)NC2=O)c1` [Compound 2244] ({CH2CO}-RY(Carboxymethyl)D[Phe(3-Me)]Y(Carboxymethyl)[Bip]Y(Carboxymethyl)[Orn][dL][Dab][Cha][Val(3-OH)]SC[Dab][AEEA][Aun]-OH; thioether N-14): the pIC50 was 9.22.

Consider `Cc1cccc(C[C@@H]2NC(=O)[C@H](CC(=O)O)NC(=O)[C@H](Cc3ccc(O)cc3)NC(=O)[C@H]([C@@H](C)O)NC(=O)CSC[C@@H](C(=O)N[C@@H](CCN)C(=O)NCCOCCOCC(=O)NCCCCCCCCCCC(=O)O)NC(=O)[C@H](CO)NC(=O)[C@H](C(C)(C)O)NC(=O)[C@H](CC3CCCCC3)NC(=O)[C@H](CCN)NC(=O)[C@@H](CC(C)C)NC(=O)[C@H](CCCN)NC(=O)[C@H](Cc3ccc(OCC(=O)O)cc3)NC(=O)[C@H](Cc3ccc(-c4ccccc4)cc3)NC(=O)[C@H](Cc3ccc(OCC(=O)O)cc3)NC2=O)c1` [Compound 2245] ({CH2CO}-TYD[Phe(3-Me)]Y(Carboxymethyl)[Bip]Y(Carboxymethyl)[Orn][dL][Dab][Cha][Val(3-OH)]SC[Dab][AEEA][Aun]-OH; thioether N-14), for which the pIC50 was 8.92.

In the case of `CCC[C@@H]1NC(=O)CSC[C@@H](C(=O)N[C@@H](CCN)C(=O)NCCOCCOCC(=O)NCCCCCCCCCCC(=O)O)NC(=O)[C@H](CO)NC(=O)[C@H](C(C)(C)O)NC(=O)[C@H](CC2CCCCC2)NC(=O)[C@H](CCN)NC(=O)[C@@H](CC(C)C)NC(=O)[C@H](CCCN)NC(=O)[C@H](Cc2ccc(OCC(=O)O)cc2)NC(=O)[C@H](Cc2ccc(-c3ccccc3)cc2)NC(=O)[C@H](Cc2ccc(OCC(=O)O)cc2)NC(=O)[C@H](Cc2cccc(C)c2)NC(=O)[C@H](CC(=O)O)NC(=O)[C@H](Cc2ccc(OCC(=O)O)cc2)NC1=O` [Compound 2246] ({CH2CO}-[Nva]Y(Carboxymethyl)D[Phe(3-Me)]Y(Carboxymethyl)[Bip]Y(Carboxymethyl)[Orn][dL][Dab][Cha][Val(3-OH)]SC[Dab][AEEA][Aun]-OH; thioether N-14), the negative-log IC50 (pIC50) was 9.22.

For the molecule `CCC[C@@H]1NC(=O)CSC[C@@H](C(=O)N[C@@H](CCN)C(=O)NCCOCCOCC(=O)NCCCCCCCCCCC(=O)O)NC(=O)[C@H](CO)NC(=O)[C@H](C(C)(C)O)NC(=O)[C@H](CC2CCCCC2)NC(=O)[C@H](CCN)NC(=O)[C@@H](CC(C)C)NC(=O)[C@H](CCCN)NC(=O)[C@H](Cc2ccc(OCC(=O)O)cc2)NC(=O)[C@H](Cc2ccc(-c3ccccc3)cc2)NC(=O)[C@H](Cc2ccc(OCC(=O)O)cc2)NC(=O)[C@H](Cc2cccc(C)c2)NC(=O)[C@H](CC(=O)O)NC(=O)[C@H](Cc2ccc(C(=O)O)cc2)NC1=O` [Compound 2247] ({CH2CO}-[Nva][Phe(4-COOH)]D[Phe(3-Me)]Y(Carboxymethyl)[Bip]Y(Carboxymethyl)[Orn][dL][Dab][Cha][Val(3-OH)]SC[Dab][AEEA][Aun]-OH; thioether N-14), the pIC50 is 8.89.

`Cc1cccc(C[C@@H]2NC(=O)[C@H](CC(=O)O)NC(=O)[C@H](Cc3ccc(O)cc3)NC(=O)[C@H](CCCNC(=N)N)NC(=O)CSC[C@@H](C(=O)N[C@@H](CCN)C(=O)NCCOCCOCC(=O)NCCCCCCCCCCC(=O)O)NC(=O)[C@H](CO)NC(=O)[C@H](C(C)(C)O)NC(=O)[C@H](CC3CCCCC3)NC(=O)[C@H](CCN)NC(=O)[C@@H](CC(C)C)NC(=O)[C@H](CCCN)NC(=O)[C@H](Cc3ccc(OCC(=O)O)cc3)NC(=O)[C@H](Cc3ccc(-c4ccccc4)cc3)NC(=O)[C@H](Cc3ccc(OCC(=O)O)cc3)NC2=O)c1` [Compound 2248] ({CH2CO}-RYD[Phe(3-Me)]Y(Carboxymethyl)[Bip]Y(Carboxymethyl)[Orn][dL][Dab][Cha][Val(3-OH)]SC[Dab][AEEA][Aun]-OH; thioether N-14): the pIC50 is 8.29.

Consider `Cc1cccc(C[C@@H]2NC(=O)[C@H](CC(=O)O)NC(=O)[C@H](Cc3ccc(OCC(=O)O)cc3)NC(=O)[C@H]([C@@H](C)O)NC(=O)CSC[C@@H](C(=O)N[C@@H](CCN)C(=O)NCCOCCOCC(=O)NCCCCCCCCCCCCC(=O)O)NC(=O)[C@H](CO)NC(=O)[C@H](C(C)(C)O)NC(=O)[C@H](CC3CCCCC3)NC(=O)[C@H](CCN)NC(=O)[C@@H](CC(C)C)NC(=O)[C@H](CCCN)NC(=O)[C@H](Cc3ccc(OCC(=O)O)cc3)NC(=O)[C@H](Cc3ccc(-c4ccccc4)cc3)NC(=O)[C@H](Cc3ccc(OCC(=O)O)cc3)NC2=O)c1` [Compound 2249] ({CH2CO}-TY(Carboxymethyl)D[Phe(3-Me)]Y(Carboxymethyl)[Bip]Y(Carboxymethyl)[Orn][dL][Dab][Cha][Val(3-OH)]SC[Dab][AEEA]-{NH(CH2)12COOH}; thioether N-14), for which the pIC50 is 7.80.

The values are drawn from patent US20260022142A1, “MACROCYCLIC IMMUNOMODULATORS” (Bristol-Myers Squibb Company, priority 2022, published 2026).
